Legend:
Settings in all cases: growth mode: biofilm, 24 h; exposure time: 24 h
tobramycin [1] = compound: T1, NC[C@H]1O[C@H](O[C@H]2[C@H](O)[C@@H](O[C@H]3O[C@H](CO)[C@@H](O)[C@H](N)[C@H]3O)[C@H](N)C[C@@H]2N)[C@H](N)C[C@@H]1O [tobramycin]; assay: minimum concentration of killing, 1-log CFU reduction of biofilm (MCK90); higher = more biofilm tolerance
Description: (§1)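 Clinical P. aeruginosa isolates were grown as static biofilms for 24 h at 37 °C in LB in half-area 96-well plates, then exposed for 24 h to tobramycin at 1, 4, 16, 64, 256 or […]. Surviving CFU were counted by spotting serial dilutions. MCK is the lowest tested concentration giving the stated log reduction in CFU versus an untreated control; '>1024' means the reduction was not reached at the top dose, and 1 is the lowest dose tested (≤1).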

colistin [2] = compound: T2, CCC(C)CCCC(=O)N[C@@H](CCN)C(=O)N[C@H](C(=O)N[C@@H](CCN)C(=O)N[C@H]1CCNC(=O)[C@H]([C@@H](C)O)NC(=O)[C@H](CCN)NC(=O)[C@H](CCN)NC(=O)[C@H](CC(C)C)NC(=O)[C@@H](CC(C)C)NC(=O)[C@H](CCN)NC1=O)[C@@H](C)O [colistin]; assay: minimum concentration eradicating biofilm below detection limit (MCK-E); higher = more biofilm tolerance
Description: as §1, with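 “colistin” for “tobramycin”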

tobramycin [3] = compound: T1, tobramycin; assay: as above
Description: as §1

colistin [4] = compound: T2, colistin; assay: minimum concentration of killing, 4-log CFU reduction of biofilm (MCK99.99); higher = more biofilm tolerance
Description: as §1, with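 “colistin” for “tobramycin”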

colistin [5] = compound: T2, colistin; assay: minimum concentration of killing, 2-log CFU reduction of biofilm (MCK99); higher = more biofilm tolerance
Description: as §1, with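 “colistin” for “tobramycin”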

tobramycin [6] = compound: T1, tobramycin; assay: as above
Description: as §1

colistin [7] = compound: T2, colistin; assay: minimum concentration of killing, 1-log CFU reduction of biofilm (MCK90); higher = more biofilm tolerance
Description: as §1, with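 “colistin” for “tobramycin”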

tobramycin [8] = compound: T1, tobramycin; assay: minimum concentration of killing, 4-log CFU reduction of biofilm (MCK99.99); higher = more biofilm tolerance
Description: as §1

Test System | minimum concentration of killing (tobramycin [1]) [µg/mL] | minimum concentration eradicating biofilm below detection limit (colistin [2]) [µg/mL] | minimum concentration eradicating biofilm below detection limit (tobramycin [3]) [µg/mL] | minimum concentration of killing (colistin [4]) [µg/mL] | minimum concentration of killing (colistin [5]) [µg/mL] | minimum concentration of killing (tobramycin [6]) [µg/mL] | minimum concentration of killing (colistin [7]) [µg/mL] | minimum concentration of killing (tobramycin [8]) [µg/mL]
Pseudomonas aeruginosa clinical isolate ESP040 | 4 | 64 | 64 | 64 | 64 | 16 | 64 | 64
Pseudomonas aeruginosa clinical isolate ESP044 | 4 | 256 | 256 | 256 | 64 | 64 | 64 | 256
Pseudomonas aeruginosa clinical isolate ESP046 | 16 | 256 | 1020 | 256 | 256 | 1020 | 256 | 1020
Pseudomonas aeruginosa clinical isolate ESP050 | 64 | 256 | 1020 | 256 | 256 | 1020 | 64 | 1020
Pseudomonas aeruginosa clinical isolate ESP054 | 4 | 256 | 256 | 256 | 256 | 4 | 64 | 256
Pseudomonas aeruginosa clinical isolate ESP055 | ≤ 1 | 256 | 64 | 256 | 256 | 16 | 64 | 16
Pseudomonas aeruginosa clinical isolate ESP058 | 4 | 256 | 64 | 256 | 256 | 16 | 256 | 64
Pseudomonas aeruginosa clinical isolate ESP059 | ≤ 1 | 256 | 256 | 256 | 256 | 4 | 64 | 256
Pseudomonas aeruginosa clinical isolate ESP060 | > 1020 | 1020 | > 1020 | 1020 | 256 | > 1020 | 256 | > 1020
Pseudomonas aeruginosa clinical isolate ESP063 | 256 | 256 | > 1020 | 256 | 16 | 1020 | ≤ 1 | > 1020
Pseudomonas aeruginosa clinical isolate ESP066 | 256 | 1020 | > 1020 | 1020 | 256 | 256 | 256 | > 1020
Pseudomonas aeruginosa clinical isolate ESP067 | 4 | 256 | 1020 | 256 | 256 | 16 | 64 | 256
Pseudomonas aeruginosa clinical isolate ESP070 | 1020 | 1020 | > 1020 | 1020 | 256 | 1020 | 64 | > 1020
Pseudomonas aeruginosa clinical isolate ESP072 | 4 | 256 | 256 | 256 | 256 | 16 | 64 | 256
Pseudomonas aeruginosa clinical isolate ESP073 | 16 | 256 | 256 | 256 | 256 | 16 | 16 | 64
Pseudomonas aeruginosa clinical isolate ESP075 | ≤ 1 | 256 | 256 | 256 | 256 | 4 | 256 | 64
Pseudomonas aeruginosa clinical isolate ESP076 | > 1020 | 256 | > 1020 | 256 | 256 | > 1020 | 256 | > 1020
Pseudomonas aeruginosa clinical isolate ESP077 | 1020 | 256 | > 1020 | 256 | 64 | 1020 | 64 | 1020

Source: the supplement of paper PMC8920030
